Patent US20110098177A1, “METHODS AND COMPOSITIONS OF PLANT MICRONUTRIENTS” (NOVUS INTERNATIONAL INC., priority 2006, published 2011)
Entries after “also recorded” stand apart in the source; their conditions may differ.

Experiments:
Assay type in all cases: in vivo
[1] = tested on: Patriot bell pepper plants; experiment: Marketable yield, open-field bell pepper (Examples 7-10); settings: open field; lb/acre/season: BIOX-Z 1.3, Cu 6.7, M 23.0, Fe 3.2, INC 4.0, INZ 0.6, CM 10.0, GZ 1.0, GF 4.0, EDZ 1.4, EDM 23.0
In short: (§1)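 Open-field 2008 trial, Balm FL; 'Tygress' tomato and 'Patriot' pepper transplants on drip-fed raised beds. Foliar micronutrient sprays at 3 and 5 WAT (BIOX-CM at 4 and 5), 60 gal/acre with surfactant. Youngest mature leaves sampled 6 WAT; RCBD, 5 replications, Fisher's LSD 5%.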

Tygress tomato plants [2] = experiment: Foliar nutrient concentration at 6 WAT, open-field tomato (Examples 7-10); settings: 6 WAT, open field; for Foliar B concentration of tomato plants / Foliar Ca concentration of tomato plants / Foliar Cu concentration of tomato plants / Foliar Fe concentration of tomato plants / Foliar K concentration of tomato plants / Foliar Mg concentration of tomato plants / Foliar Mn concentration of tomato plants / Foliar N concentration of tomato plants / Foliar P concentration of tomato plants / Foliar Zn concentration of tomato plants: product rate as Table 17
In short: as §1

Tygress tomato plants [3] = experiment: Foliar nutrient concentration 2 weeks after treatment, greenhouse tomato (Examples 4-6); settings: for Foliar Mn concentration: tomato leaves 2 weeks after Mn treatment; for Foliar Zn concentration: tomato leaves 2 weeks after Zn treatment
In short: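 Tygress tomato in 2-gallon pots of micronutrient-poor medium (negligible Fe, Zn, Mn, Cu) in greenhouse; foliar treatments at 5 WAT in 200 mL/plant water with non-ionic surfactant. Newest non-applied leaves analysed 2 weeks before and after treatment; marketable fruit harvested three times from 10 WAT, graded. RCBD, 6 replications, LSD 5%.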

[4] = Mn 0.31 lb/acre, 2 weeks after Mn treatment
[5] = Mn 0.62 lb/acre, 2 weeks after Mn treatment
[6] = Mn 1.23 lb/acre, 2 weeks after Mn treatment
[7] = Mn 2.46 lb/acre, 2 weeks after Mn treatment
[8] = Zn 0.1 lb/acre, 2 weeks after Zn treatment
[9] = Zn 0.2 lb/acre, 2 weeks after Zn treatment
[10] = Zn 0.4 lb/acre, 2 weeks after Zn treatment
[11] = Zn 0.8 lb/acre, 2 weeks after Zn treatment

## CSCCC(O)C(=O)[O-].CSCCC(O)C(=O)[O-].[Cu+2] (stereo not drawn) [BIOX-Cu, Cu-HMTBA]
[1]
  Marketable yield, Bell Pepper: 7.8 ton/acre
Tygress tomato plants [2]
  Foliar B concentration of tomato plants: 42 ppm
  Foliar Ca concentration of tomato plants: 1.8%
  Foliar Cu concentration of tomato plants: 407 b ppm
  Foliar Fe concentration of tomato plants: 83 ppm
  Foliar K concentration of tomato plants: 5.6%
  Foliar Mg concentration of tomato plants: 0.58%
  Foliar Mn concentration of tomato plants: 211 ppm
  Foliar N concentration of tomato plants: 5.0%
  Foliar P concentration of tomato plants: 0.21%
  Foliar Zn concentration of tomato plants: 306 ppm

## CSCCC(O)C(=O)[O-].CSCCC(O)C(=O)[O-].[Mn+2] (stereo not drawn) [BIOX-M, Mn-HMTBA]
Tygress tomato plants [3]; [4]
  B concentration in tomato leaves: 22 ppm
  Ca concentration in tomato leaves: 0.6%
  Cu concentration in tomato leaves: 5 ppm
  Fe concentration in tomato leaves: 109 ppm
  K concentration in tomato leaves: 3.1%
  Mg concentration in tomato leaves: 0.3%
  N concentration in tomato leaves: 3.5%
  P concentration in tomato leaves: 0.4%
  Zn concentration in tomato leaves: 31 ppm
Tygress tomato plants [3]; Mn 0.31 lb/acre
  Foliar Mn concentration: 22.9 b ppm
Tygress tomato plants [3]; [5]
  B concentration in tomato leaves: 24 ppm
  Ca concentration in tomato leaves: 0.6%
  Cu concentration in tomato leaves: 5 ppm
  Fe concentration in tomato leaves: 110 ppm
  K concentration in tomato leaves: 3.2%
  Mg concentration in tomato leaves: 0.3%
  N concentration in tomato leaves: 3.5%
  P concentration in tomato leaves: 0.5%
  Zn concentration in tomato leaves: 32 ppm
Tygress tomato plants [3]; Mn 0.62 lb/acre
  Foliar Mn concentration: 29.5 b ppm
Tygress tomato plants [3]; [6]
  B concentration in tomato leaves: 25 ppm
  Ca concentration in tomato leaves: 0.6%
  Cu concentration in tomato leaves: 5 ppm
  Fe concentration in tomato leaves: 112 ppm
  K concentration in tomato leaves: 3.1%
  Mg concentration in tomato leaves: 0.3%
  N concentration in tomato leaves: 3.5%
  P concentration in tomato leaves: 0.5%
  Zn concentration in tomato leaves: 28 ppm
Tygress tomato plants [3]; Mn 1.23 lb/acre
  Foliar Mn concentration: 60.6 a ppm
Tygress tomato plants [3]; [7]
  B concentration in tomato leaves: 23 ppm
  Ca concentration in tomato leaves: 0.6%
  Cu concentration in tomato leaves: 5 ppm
  Fe concentration in tomato leaves: 114 ppm
  K concentration in tomato leaves: 3.2%
  Mg concentration in tomato leaves: 0.3%
  N concentration in tomato leaves: 3.6%
  P concentration in tomato leaves: 0.4%
  Zn concentration in tomato leaves: 33 ppm
Tygress tomato plants [3]; Mn 2.46 lb/acre
  Foliar Mn concentration: 69.2 a ppm
[1]
  Marketable yield, Bell Pepper: 6.3 ton/acre
Tygress tomato plants [2]
  Foliar concentration of Mn of tomato plants, statement: significant increase; also recorded: highest foliar concentration of Mn; also recorded: significantly higher foliar Mn content
  Foliar concentration of P of tomato plants compared to control, statement: significant increase
  Foliar B concentration of tomato plants: 70 ppm
  Foliar Ca concentration of tomato plants: 1.7%
  Foliar Cu concentration of tomato plants: 417 ppm
  Foliar Fe concentration of tomato plants: 88 ppm
  Foliar K concentration of tomato plants: 4.6 b %
  Foliar Mg concentration of tomato plants: 0.56%
  Foliar Mn concentration of tomato plants: 470 a ppm
  Foliar N concentration of tomato plants: 4.4%
  Foliar P concentration of tomato plants: 0.19 b %
  Foliar Zn concentration of tomato plants: 266 b ppm

## CSCCC(O)C(=O)[O-].CSCCC(O)C(=O)[O-].[Zn+2] (stereo not drawn) [BIOX-Z, Zn-HMTBA]
Tygress tomato plants [3]; 0.8 lb/acre, 2 weeks after application
  Foliar Zn concentration compared with control (in words): significantly higher than control
Tygress tomato plants [3]; [8]
  B concentration in tomato leaves: 25 ppm
  Ca concentration in tomato leaves: 0.6%
  Cu concentration in tomato leaves: 8 ppm
  Fe concentration in tomato leaves: 98 ppm
  K concentration in tomato leaves: 3.5%
  Mg concentration in tomato leaves: 0.3%
  Mn concentration in tomato leaves: 55 ppm
  N concentration in tomato leaves: 3.6%
  P concentration in tomato leaves: 0.5%
Tygress tomato plants [3]; Zn 0.1 lb/acre
  Foliar Zn concentration: 86 bc ppm
Tygress tomato plants [3]; [9]
  B concentration in tomato leaves: 27 ppm
  Ca concentration in tomato leaves: 0.6%
  Cu concentration in tomato leaves: 6 ppm
  Fe concentration in tomato leaves: 88 ppm
  K concentration in tomato leaves: 3.7%
  Mg concentration in tomato leaves: 0.3%
  Mn concentration in tomato leaves: 56 ppm
  N concentration in tomato leaves: 3.3%
  P concentration in tomato leaves: 0.5%
Tygress tomato plants [3]; Zn 0.2 lb/acre
  Foliar Zn concentration: 112 bc ppm
Tygress tomato plants [3]; [10]
  B concentration in tomato leaves: 28 ppm
  Ca concentration in tomato leaves: 0.6%
  Cu concentration in tomato leaves: 6 ppm
  Fe concentration in tomato leaves: 88 ppm
  K concentration in tomato leaves: 3.5%
  Mg concentration in tomato leaves: 0.3%
  Mn concentration in tomato leaves: 59 ppm
  N concentration in tomato leaves: 3.4%
  P concentration in tomato leaves: 0.5%
Tygress tomato plants [3]; Zn 0.4 lb/acre
  Foliar Zn concentration: 128 bc ppm
Tygress tomato plants [3]; [11]
  B concentration in tomato leaves: 25 ppm
  Ca concentration in tomato leaves: 0.5%
  Cu concentration in tomato leaves: 4 ppm
  Fe concentration in tomato leaves: 93 ppm
  K concentration in tomato leaves: 3.4%
  Mg concentration in tomato leaves: 0.3%
  Mn concentration in tomato leaves: 54 ppm
  N concentration in tomato leaves: 3.5%
  P concentration in tomato leaves: 0.5%
Tygress tomato plants [3]; Zn 0.8 lb/acre
  Foliar Zn concentration: 500 ab ppm
[1]
  Marketable yield, Bell Pepper: 8.4 ton/acre
Tygress tomato plants [2]
  Foliar Zn concentration of tomato plants, statement: highest foliar concentration of Zn; also recorded: significantly higher foliar Zn content
  Foliar B concentration of tomato plants: 59 ppm
  Foliar Ca concentration of tomato plants: 2.2%
  Foliar Cu concentration of tomato plants: 338 ppm
  Foliar Fe concentration of tomato plants: 76 ppm
  Foliar K concentration of tomato plants: 5.5%
  Foliar Mg concentration of tomato plants: 0.78%
  Foliar Mn concentration of tomato plants: 198 ppm
  Foliar N concentration of tomato plants: 4.7%
  Foliar P concentration of tomato plants: 0.21%
  Foliar Zn concentration of tomato plants: 434 a ppm

## EDTA chelated zinc [BIOX-EDZ]
Tygress tomato plants [3]; [10]
  B concentration in tomato leaves: 21 ppm
  Ca concentration in tomato leaves: 0.6%
  Cu concentration in tomato leaves: 7 ppm
  Fe concentration in tomato leaves: 95 ppm
  K concentration in tomato leaves: 3.6%
  Mg concentration in tomato leaves: 0.3%
  Mn concentration in tomato leaves: 54 ppm
  N concentration in tomato leaves: 3.6%
  P concentration in tomato leaves: 0.5%
Tygress tomato plants [3]; Zn 0.4 lb/acre
  Foliar Zn concentration: 214.bc ppm
[1]
  Marketable yield, Bell Pepper: 8.1 ton/acre
Tygress tomato plants [2]
  Foliar Zn concentration of tomato plants, statement: All treatments except BIOX-EDZ resulted in significantly higher foliar Zn concentrations
  Foliar B concentration of tomato plants: 44 ppm
  Foliar Ca concentration of tomato plants: 1.9%
  Foliar Cu concentration of tomato plants: 371 ppm
  Foliar Fe concentration of tomato plants: 90 ppm
  Foliar K concentration of tomato plants: 5.2%
  Foliar Mg concentration of tomato plants: 0.69%
  Foliar Mn concentration of tomato plants: 207 ppm
  Foliar N concentration of tomato plants: 4.9%
  Foliar P concentration of tomato plants: 0.24%
  Foliar Zn concentration of tomato plants: 310 bc ppm

## Fe-HMTBA [BIOX-Fe]
[1]
  Marketable yield, Bell Pepper: 7.2 ton/acre
Tygress tomato plants [2]
  Foliar B concentration of tomato plants: 21 ppm
  Foliar Ca concentration of tomato plants: 0.2%
  Foliar Cu concentration of tomato plants: 21 ppm
  Foliar Fe concentration of tomato plants: 77 ppm
  Foliar K concentration of tomato plants: 8.2%
  Foliar Mg concentration of tomato plants: 0.37%
  Foliar Mn concentration of tomato plants: 37 ppm
  Foliar N concentration of tomato plants: 4.2%
  Foliar P concentration of tomato plants: 0.69%
  Foliar Zn concentration of tomato plants: 294 ppm
